Laboratory results published in patent EP4745130A1, “CRYSTAL FORMS OF TUBULIN-SRC DUAL-TARGETING INHIBITOR, PREPARATION METHOD THEREFOR AND USE THEREOF” (Hubei Bio-Pharmaceutical Industrial Technological Institute …, priority 2023, dated 2025).
Where a name gives a salt, the structure may show the parent alone.

Assays:
[1] = Hygroscopicity test by dynamic vapor sorption (DVS); type: physicochemical; conditions: DVS, 25°C, 0%RH to 95%RH
Experimental: The dynamic vapor sorption (DVS) curve was collected on DVS IntrInsic from SMS (surface measurement systems). The relative humidity at 25°C was corrected using the deliquescence points of LiCl, Mg(NO3)2, and KCl. Table 18 DVS test parameters
The percentage change in sample mass was collected under constant temperature at 25°C as humidity varied from 0%RH to 95%RH.

[2] = Solid-state stability (XRPD and HPLC after open storage); type: physicochemical; conditions: for Crystal form: XRPD
Experimental: The purity test, dynamic solubility test, and stability test in the assay were measured using an Agilent 1260 high-performance liquid chromatograph, and the salt formation molar ratio of ions was tested by ion chromatography, and the analytical conditions are shown in Table 19 and Table 20. Table 19 High-performance liquid chromatography test conditions

[3] = Heating / variable temperature XRPD (VT-XRPD), crystal form conversion; type: physicochemical
Experimental: The XRPD pattern was collected on an X-ray powder diffraction analyzer produced by PANalytacal, and the scanning parameters are shown in Table 16. Table 16 XRPD test parameters
The free form crystal form B sample was obtained by dissolving the compound of Formula I in MeOH, removing the solvent by rotary evaporation under reduced pressure, and then transferring the resulting gel-like sample for vacuum drying at 50°C. The XRPD and TGA/DSC characterization results are shown in FIGS. 4-6, and the XRPD diffraction peak data of the free form crystal form B are shown in Table 23. […] The TGA weight loss of the free form crystal form B is low, and the free form crystal form B is an anhydrous crystal form.
Combined with the TGA/DSC and ^1H NMR results of the crystal form A of the phosphate salt, the crystal form A of the phosphate salt was a hydrate, which dehydrated under heating conditions and converted to anhydrous crystal form B of the phosphate salt.

[4] = Dynamic solubility experiment at 37°C (water, SGF, FaSSIF, FeSSIF); conditions: for S: solubility: solid feed 10 mg/mL; for pH: pH value of the filtrate
Experimental: Rotating mixing was carried out at 37°C at a solid feed concentration of 10 mg/mL (calculated as the compound of Formula I). […] After sampling at each time point, the samples were centrifuged (10000 rpm) and filtered (0.45 µm PTFE filter head), and the HPLC concentration and pH value of the filtrate were measured.
100 mg of NaCl and 50 mg of Triton X-100 were weighed into a 50 mL volumetric flask, and purified water was added to complete dissolution. 816 µL of 1 M hydrochloric acid was added thereto, and the pH was adjusted to 1.8 with 1 M hydrochloric acid or 1 M NaOH solution. Purified water was added to make up to volume.
340 mg of anhydrous NaH2PO4 and 620 mg of NaCl were weighed into a 100 mL volumetric flask. Purified water was added to complete dissolution, followed by addition of 55.44 µL of 50% NaOH solution, and the pH was adjusted to 6.5 using 1M HCl or 1M NaOH solution. Purified water was added to make up to volume. 110 mg of SIF powder was then weighed into a 50 mL volumetric flask, added with the above solution to complete dissolution and make up to volume.
0.82 mL of glacial acetic acid and 1.18 g of NaCl were added to a 100 mL volumetric flask. Purified water was added to complete dissolution, followed by addition of 528 µL of 50% NaOH solution, and the pH was adjusted to 5.0 using 1M HCl or 1M NaOH solution. Purified water was added to make up to volume. 560 mg of SIF powder was then weighed into a 50 mL volumetric flask, added with the above solution to complete dissolution and make up to volume.

[5] = 25°C/60%RH/open, 1 week, listed as Crystal form A ofp-toluenesulfonate salt
[6] = 40°C/75%RH/open, 1 week, listed as Crystal form A ofp-toluenesulfonate salt

Cc1cc(OCCN2C[C@H]3COC[C@H]3C2)ccc1-c1ccc(CC(=O)NCc2ccccc2)nc1 [Crystal form A of phosphate salt]
hygroscopicity ([1]; listed as crystal form A of the phosphate salt): rapidly dehydrates below 10% RH | Purity (area%) ([2]; 25°C/60%RH/open, 1 week): 97.84 area% | Relative to initial (%) ([2]; 25°C/60%RH/open, 1 week): 100.2% | Crystal form ([2]; 25°C/60%RH/open, 1 week): Crystal form A of phosphate salt | Purity (area%) ([2]; 40°C/75%RH/open, 1 week): 97.55 area% | Relative to initial (%) ([2]; 40°C/75%RH/open, 1 week): 99.9% | Crystal form ([2]; 40°C/75%RH/open, 1 week): Crystal form A of phosphate salt | Purity (area%) ([2]; Initial): 97.62 area% | crystal form after heating ([3]; heating to 150°C under nitrogen, cooling to 30°C, exposing to air): conversion to free form crystal form B | crystal form after purging ([3]; purging under N2 for 20 min): remained unchanged | S: solubility ([4]; FaSSIF, 1 hour, 60 min): 6630 µg/mL | S: solubility ([4]; FaSSIF, 4 hours, 240 min): 6320 µg/mL | S: solubility ([4]; FaSSIF, 24 hours, 1440 min): 6140 µg/mL | S: solubility ([4]; FeSSIF, 1 hour, 60 min): 5130 µg/mL | S: solubility ([4]; FeSSIF, 4 hours, 240 min): 4120 µg/mL | S: solubility ([4]; FeSSIF, 24 hours, 1440 min): 3730 µg/mL | S: solubility ([4]; H2O, 1 hour, 60 min): 9830 µg/mL | S: solubility ([4]; H2O, 4 hours, 240 min): 9650 µg/mL | S: solubility ([4]; H2O, 24 hours, 1440 min): 9120 µg/mL | S: solubility ([4]; SGF, 1 hour, 60 min): 9140 µg/mL | S: solubility ([4]; SGF, 4 hours, 240 min): 9670 µg/mL | S: solubility ([4]; SGF, 24 hours, 1440 min): 9070 µg/mL | pH ([4]; FaSSIF, 1 hour): 5.9 | pH ([4]; FaSSIF, 4 hours): 5.9 | pH ([4]; FaSSIF, 24 hours): 5.9 | pH ([4]; FeSSIF, 1 hour): 4.9 | pH ([4]; FeSSIF, 4 hours): 4.9 | pH ([4]; FeSSIF, 24 hours): 4.9 | pH ([4]; H2O, 1 hour): 5.3 | pH ([4]; H2O, 4 hours): 5.4 | pH ([4]; H2O, 24 hours): 5.3 | pH ([4]; SGF, 1 hour): 3.4 | pH ([4]; SGF, 4 hours): 3.4 | pH ([4]; SGF, 24 hours): 3.4

Cc1cc(OCCN2C[C@H]3COC[C@H]3C2)ccc1-c1ccc(CC(=O)NCc2ccccc2)nc1 [Crystal form B of oxalate salt]
hygroscopicity ([1]; listed as crystal form B of the oxalate salt): slightly hygroscopic | Purity (area%) ([2]; 25°C/60%RH/open, 1 week): 97.49 area% | Relative to initial (%) ([2]; 25°C/60%RH/open, 1 week): 100.0% | Crystal form ([2]; 25°C/60%RH/open, 1 week): Crystal form B of oxalate salt | Purity (area%) ([2]; 40°C/75%RH/open, 1 week): 97.52 area% | Relative to initial (%) ([2]; 40°C/75%RH/open, 1 week): 100.1% | Crystal form ([2]; 40°C/75%RH/open, 1 week): Crystal form B of oxalate salt | Purity (area%) ([2]; Initial): 97.47 area% | S: solubility ([4]; FaSSIF, 1 hour, 60 min): 9270 µg/mL | S: solubility ([4]; FaSSIF, 4 hours, 240 min): 8890 µg/mL | S: solubility ([4]; FaSSIF, 24 hours, 1440 min): 8470 µg/mL | S: solubility ([4]; FeSSIF, 1 hour, 60 min): 3800 µg/mL | S: solubility ([4]; FeSSIF, 4 hours, 240 min): 3660 µg/mL | S: solubility ([4]; FeSSIF, 24 hours, 1440 min): 3480 µg/mL | S: solubility ([4]; H2O, 1 hour, 60 min): 9650 µg/mL | S: solubility ([4]; H2O, 4 hours, 240 min): 9650 µg/mL | S: solubility ([4]; H2O, 24 hours, 1440 min): 9360 µg/mL | S: solubility ([4]; SGF, 1 hour, 60 min): 9990 µg/mL | S: solubility ([4]; SGF, 4 hours, 240 min): 9790 µg/mL | S: solubility ([4]; SGF, 24 hours, 1440 min): 9610 µg/mL | pH ([4]; FaSSIF, 1 hour): 4.2 | pH ([4]; FaSSIF, 4 hours): 4.2 | pH ([4]; FaSSIF, 24 hours): 4.2 | pH ([4]; FeSSIF, 1 hour): 4.7 | pH ([4]; H2O, 1 hour): 3.8 | pH ([4]; H2O, 4 hours): 3.8 | pH ([4]; H2O, 24 hours): 3.9 | pH ([4]; SGF, 1 hour): 3.1 | pH ([4]; SGF, 4 hours): 3.1 | pH ([4]; SGF, 24 hours): 3.1

Cc1cc(OCCN2C[C@H]3COC[C@H]3C2)ccc1-c1ccc(CC(=O)NCc2ccccc2)nc1 [Crystal form A of benzenesulfonate salt]
hygroscopicity ([1]; listed as crystal form A of the benzenesulfonate salt): slightly hygroscopic | Purity (area%) ([2]; 25°C/60%RH/open, 1 week): 97.61 area% | Relative to initial (%) ([2]; 25°C/60%RH/open, 1 week): 99.8% | Crystal form ([2]; 25°C/60%RH/open, 1 week): Crystal form A of benzenesulfonate salt | Purity (area%) ([2]; 40°C/75%RH/open, 1 week): 97.61 area% | Relative to initial (%) ([2]; 40°C/75%RH/open, 1 week): 99.8% | Crystal form ([2]; 40°C/75%RH/open, 1 week): Crystal form A of benzenesulfonate salt | Purity (area%) ([2]; Initial): 97.78 area% | S: solubility ([4]; FaSSIF, 1 hour, 60 min): 3980 µg/mL | S: solubility ([4]; FaSSIF, 4 hours, 240 min): 3640 µg/mL | S: solubility ([4]; FaSSIF, 24 hours, 1440 min): 3550 µg/mL | S: solubility ([4]; FeSSIF, 1 hour, 60 min): 3150 µg/mL | S: solubility ([4]; FeSSIF, 4 hours, 240 min): 2890 µg/mL | S: solubility ([4]; FeSSIF, 24 hours, 1440 min): 2910 µg/mL | S: solubility ([4]; H2O, 1 hour, 60 min): 8290 µg/mL | S: solubility ([4]; H2O, 4 hours, 240 min): 8390 µg/mL | S: solubility ([4]; H2O, 24 hours, 1440 min): 8120 µg/mL | S: solubility ([4]; SGF, 1 hour, 60 min): 9940 µg/mL | S: solubility ([4]; SGF, 4 hours, 240 min): 9950 µg/mL | S: solubility ([4]; SGF, 24 hours, 1440 min): 9700 µg/mL | pH ([4]; FaSSIF, 1 hour): 6.1 | pH ([4]; FaSSIF, 4 hours): 6.1 | pH ([4]; FaSSIF, 24 hours): 6.1 | pH ([4]; FeSSIF, 1 hour): 4.9 | pH ([4]; FeSSIF, 4 hours): 4.9 | pH ([4]; FeSSIF, 24 hours): 4.9 | pH ([4]; H2O, 1 hour): 5.6 | pH ([4]; H2O, 4 hours): 5.6 | pH ([4]; H2O, 24 hours): 5.6 | pH ([4]; SGF, 1 hour): 3.4 | pH ([4]; SGF, 4 hours): 3.5 | pH ([4]; SGF, 24 hours): 3.5

Cc1cc(OCCN2C[C@H]3COC[C@H]3C2)ccc1-c1ccc(CC(=O)NCc2ccccc2)nc1
hygroscopicity ([1]; listed as crystal form A of the p-toluenesulfonate salt): slightly hygroscopic | Crystal form [2, 5]: Crystal form A of p-toluenesulfonate salt | Purity (area%) [2, 5]: 97.38 area% | Relative to initial (%) [2, 5]: 99.7% | Crystal form [2, 6]: Crystal form A of p-toluenesulfonate salt | Purity (area%) [2, 6]: 97.38 area% | Relative to initial (%) [2, 6]: 99.7% | Purity (area%) ([2]; Initial, listed as Crystal form A ofp-toluenesulfonate salt): 97.67 area% | S: solubility ([4]; FaSSIF, 1 hour, listed as Crystal form A ofp-toluenesulfonate salt, 60 min): 2780 µg/mL | S: solubility ([4]; FaSSIF, 4 hours, listed as Crystal form A ofp-toluenesulfonate salt, 240 min): 2780 µg/mL | S: solubility ([4]; FaSSIF, 24 hours, listed as Crystal form A ofp-toluenesulfonate salt, 1440 min): 2680 µg/mL | S: solubility ([4]; FeSSIF, 1 hour, listed as Crystal form A ofp-toluenesulfonate salt, 60 min): 4120 µg/mL | S: solubility ([4]; FeSSIF, 4 hours, listed as Crystal form A ofp-toluenesulfonate salt, 240 min): 2510 µg/mL | S: solubility ([4]; FeSSIF, 24 hours, listed as Crystal form A ofp-toluenesulfonate salt, 1440 min): 2300 µg/mL | S: solubility ([4]; H2O, 1 hour, listed as Crystal form A ofp-toluenesulfonate salt, 60 min): 5970 µg/mL | S: solubility ([4]; H2O, 4 hours, listed as Crystal form A ofp-toluenesulfonate salt, 240 min): 6130 µg/mL | S: solubility ([4]; H2O, 24 hours, listed as Crystal form A ofp-toluenesulfonate salt, 1440 min): 5750 µg/mL | S: solubility ([4]; SGF, 1 hour, listed as Crystal form A ofp-toluenesulfonate salt, 60 min): 9410 µg/mL | S: solubility ([4]; SGF, 4 hours, listed as Crystal form A ofp-toluenesulfonate salt, 240 min): 9460 µg/mL | S: solubility ([4]; SGF, 24 hours, listed as Crystal form A ofp-toluenesulfonate salt, 1440 min): 8970 µg/mL | pH ([4]; FaSSIF, 1 hour, listed as Crystal form A ofp-toluenesulfonate salt): 6.0 | pH ([4]; FaSSIF, 4 hours, listed as Crystal form A ofp-toluenesulfonate salt): 6.1 | pH ([4]; FaSSIF, 24 hours, listed as Crystal form A ofp-toluenesulfonate salt): 6.1 | pH ([4]; FeSSIF, 1 hour, listed as Crystal form A ofp-toluenesulfonate salt): 4.9 | pH ([4]; FeSSIF, 4 hours, listed as Crystal form A ofp-toluenesulfonate salt): 4.9 | pH ([4]; FeSSIF, 24 hours, listed as Crystal form A ofp-toluenesulfonate salt): 4.9 | pH ([4]; H2O, 1 hour, listed as Crystal form A ofp-toluenesulfonate salt): 5.3 | pH ([4]; H2O, 4 hours, listed as Crystal form A ofp-toluenesulfonate salt): 5.4 | pH ([4]; H2O, 24 hours, listed as Crystal form A ofp-toluenesulfonate salt): 5.2 | pH ([4]; SGF, 1 hour, listed as Crystal form A ofp-toluenesulfonate salt): 3.3 | pH ([4]; SGF, 4 hours, listed as Crystal form A ofp-toluenesulfonate salt): 3.3 | pH ([4]; SGF, 24 hours, listed as Crystal form A ofp-toluenesulfonate salt): 3.3
